From US20120115149A1, “SEROTONIN TRANSPORTER GENE AND TREATMENT OF ALCOHOLISM” (University of Virginia Patent Foundation, priority 2009, published 2012)
Structures can show the parent of a compound that is named as a salt.

Assays:
[1] = cited from earlier work; for effect on binge eating, in words: human, in vivo
[2] = cited from earlier work
[3] = alcohol trials, naltrexone 50 mg/day; cited from earlier work
alcoholics = test: Double-blind placebo-controlled trial of ondansetron in alcoholics randomized by 5'-HTTLPR genotype: self-reported drinking; format: in vivo, human
From the text: We randomized 283 alcoholics by genotype in the 5′-regulatory region of the 5-HTT gene (LL/LS/SS) in a controlled double-blind trial. […] We genotyped another functional single nucleotide polymorphism (T/G), rs1042173, in the 3′-untranslated region.
Participants. Details of the subject population were similar to those in a previously published study (22). Briefly, our 283 enrollees (73.7% male; 84.4% White, and 15.6% Hispanic) had alcohol dependence but no axis I diagnosis other than nicotine dependence according to the Diagnostic and Statistical Manual of Mental Disorders, 4th edition (23); were aged 20 to 78 years, and scored >8 on the Alcohol Use Disorders Identification Test (24), which assessed the severity of alcohol-related problems.
All subjects provided informed consent to participate.
Subjects were randomized using an urn (25) procedure after the screening visit to either treatment or placebo under each of three different genotypes (LL, LS, or SS alleles of the 5′-HTTLPR) strata. Further characterization of the cohort for rs1042173 of 3′-UTR alleles (i.e., TT/TG/GG) was done post-randomization.
Study procedures. Subjects were enrolled in the study whilst they were still drinking (i.e., without a period of abstinence). At enrollment, we collected self-reported drinking based on the timeline follow-back method over the past 90 days (26), genotyped, and collected white blood cells (WBCs) for expression studies.
From weeks 1 to 12, subjects received weekly assessment of drinking using the timeline follow-back method, adverse events using the Systematic Assessment for Treatment Emergent Events (28), alcohol withdrawal using the revised Clinical Institute Withdrawal Assessment for Alcohol scale (17), concomitant medication use, and pill count.
All subjects received weekly standardized, manual-driven (29, 30) cognitive behavioral therapy in groups of up to eight subjects as their psychosocial treatment. This comprised an integration of cognitive behavioral and social learning theory that enables alcoholic subjects to achieve and maintain abstinence by enhancing their ability to manage high-risk situations, which can trigger alcohol-seeking behavior (31, 32).
Genetics testing. DNA was extracted from the blood of each subject at baseline with a Gentra Puregene® kit (QIAGEN Inc., Valencia, Calif.). The 5′-HTTLPR L/S alleles were determined as described earlier (2, 33) with custom-made primers. The alleles of SNP rs1042173 were genotyped with pre-made TaqMan® genotyping assays (Applied Biosystems, Foster City, Calif.) as reported previously (10).

[4] = LL genotype, ondansetron (4 μg/kg twice daily, 11 weeks) vs. placebo, averaged across treatment
[5] = ondansetron LL vs. all other genotype and treatment groups combined
[6] = ondansetron LL/TT vs. all other genotype and treatment groups combined
[7] = within ondansetron recipients, LL vs. LS/SS

Compound: CC1(C)O[C@@H]2[C@@H](CO[C@@]3(COS(N)(=O)=O)OC(C)(C)O[C@@H]23)O1 [topiramate, 2,3:4,5-Bis-O-(1-methylethylidene)-beta-D-fructopyranose sulfamate]
- effect on appetite and weight, in words ([1]; controlled trials in patients with epilepsy): suppression of appetite and weight loss
- cognitive impairment, individuals reporting ([2]; general population): 2.4%
- occurrence rate of cognitive impairment ([2]; substance abuse field): about 18.7%

Compound: O=C1CC[C@@]2(O)[C@H]3Cc4ccc(O)c5c4[C@@]2(CCN3CC2CC2)[C@H]1O5 [naltrexone, 17-(Cyclopropylmethyl)-4,5a-epoxy-3,14-dihydroxymorphinan-6-one hydrochloride]
- individuals unable to tolerate the dose [3]: about 15%

Compound: O=C1NC(=O)C(c2ccccc2)(c2ccccc2)N1 [phenyloin]
- effect on binge eating, in words [1]: reduced binge eating

Compound: Cc1nccn1CC1CCc2c(c3ccccc3n2C)C1=O (stereo not drawn) [ondansetron, 9-methyl-3-[(2-methyl-1H-imidazol-1-yl)methyl]-1,2,3,9-tetrahydrocarbazol-4-one]
- effect on binge eating, in words [1]: reduce binge eating
- drinks/drinking day (DDD), difference (alcoholics; [4]): −1.62
- percentage of days abstinent (PDA), difference (alcoholics; [4]): 11.27%
- response by age of onset, in words (alcoholics; LL or LL/TT genotype): responded to ondansetron irrespective of age of onset
- effect on drinks/drinking day, in words (alcoholics; LL subjects, TT subjects): reduces drinks/drinking day
- response to treatment by rs1042173 genotype, in words (alcoholics; alcohol-dependent subjects, TT vs. TG/GG genotype): respond better
- reduction in severity of drinking by 5'-HTTLPR genotype, in words (alcoholics; alcoholics with LL genotype vs. LS/SS): significantly greater reduction in the severity of drinking
- drinks/drinking day (DDD), difference (alcoholics; [5]): −1.45
- percentage of days abstinent (PDA), difference (alcoholics; [5]): 9.65%
- drinks/drinking day (DDD), difference (alcoholics; [6]): −2.63
- percentage of days abstinent (PDA), difference (alcoholics; [6]): 16.99%
- drinks/drinking day (DDD), difference (alcoholics; [7]): −1.53
- percentage of days abstinent (PDA), difference (alcoholics; [7]): 9.73%
